Values of other authors as cited in patent US6645979B2, “(7-(3-carboxyphenyl)-4-chloroisoquinolin-1-yl)guanidine” (Pfizer Inc., priority 2000, dated 2003).

Biological target: urinary-type plasminogen activator (uPA, urokinase) (Homo sapiens, UniProt P00749)
Conditions: general statement, no value given

uPA antagonist potency: potent
SMILES: NC(N)=Nc1ncc(Cl)c2ccc(-c3cccc(C(=O)O)c3)cc12 [Compound (I), (7-(3-carboxyphenyl)-4-chloroisoquinolin-1-yl)guanidine]
